Assay results published in patent US20210024628A1, “METHODS FOR MODULATING INNATE LYMPHOID CELL ACTIVITY, ANTIBODY DRUG CONJUGATES AND USES IN THERAPY” (INSERM (INSTITUT NATIONAL DE LA SANTÉ ET DE LA RECHERCHE …, priority 2018, published 2021).

Experiments:
NK cells [1] = assay: In vitro splenocyte stimulation: NK cell degranulation (CD107a); assay type: cell-based, mice; conditions: stimulation with anti-NK1.1 antibodies or PMA and ionomycine, data not shown
Protocol: Splenocytes from control and GR^Ncr1-iCre mice were stimulated in vitro in complete culture medium (RPMI 10% FCS, 100 μg/ml penicillin/streptomycin, 2 mM 1-glutamine, 1 mM sodium pyruvate, and 0.01 M Hepes) with: 25 ng/ml IL-12 (eBiosciences), 25 ng/ml IL-15 (Peprotech) and 20 ng/ml IL-18 (MBL) alone or in combination, or with PMA (200 ng/ml, Sigma) and ionomycin (1 μg/ml, Sigma). For NK1.1 stimulation 96 well plates (Immulon 2HB) were coated overnight at 37° C. with 2.5 ul/well anti-NK1.1 Ab (PK136, eBiosciences) or IgG2a isotype control before cell plating. During stimulation, 250 or 500 nM corticosterone (Sigma; dissolved in ethanol) or the same volume of vehicle alone were added to the medium. Cells were stimulated at 37° C. in the presence of Golgi Stop and Golgi Plug from BD Biosciences. After 4 h of stimulation, the cells were washed and stained for FACS analysis. […]
Single-cell suspensions were obtained from the spleen by scratching it through 70 um cell strainer, or from the liver by scratching it through 100 um cell strainer and subsequent lymphocyte isolation on a 37.5%-67.5% Percoll gradient. […] Stained samples were analyzed in a BD LSRII flow cytometer (BD Biosciences). Apoptosis was detected with the FITC Annexin V Apoptosis Detection Kit I from BD Biosciences, according to the manufacturer's protocol.

NK cells [2] = assay: In vitro splenocyte stimulation with cytokines: PD1 expression (FACS); assay type: cell-based, mice
Protocol: Splenocytes from control and GR^Ncr1-iCre mice were stimulated in vitro in complete culture medium (RPMI 10% FCS, 100 μg/ml penicillin/streptomycin, 2 mM 1-glutamine, 1 mM sodium pyruvate, and 0.01 M Hepes) with: 25 ng/ml IL-12 (eBiosciences), 25 ng/ml IL-15 (Peprotech) and 20 ng/ml IL-18 (MBL) alone or in combination, or with PMA (200 ng/ml, Sigma) and ionomycin (1 μg/ml, Sigma). For NK1.1 stimulation 96 well plates (Immulon 2HB) were coated overnight at 37° C. with 2.5 ul/well anti-NK1.1 Ab (PK136, eBiosciences) or IgG2a isotype control before cell plating. During stimulation, 250 or 500 nM corticosterone (Sigma; dissolved in ethanol) or the same volume of vehicle alone were added to the medium. Cells were stimulated at 37° C. in the presence of Golgi Stop and Golgi Plug from BD Biosciences. After 4 h of stimulation, the cells were washed and stained for FACS analysis. For CD107a staining, 2.5 ul/well of anti-CD107a-FITC antibody (1D4B, BD Biosciences) were added during stimulation.
Single-cell suspensions were obtained from the spleen by scratching it through 70 um cell strainer, or from the liver by scratching it through 100 um cell strainer and subsequent lymphocyte isolation on a 37.5%-67.5% Percoll gradient. For isolation of small intestine lamina propria cells, intestines were cut longitudinally, then transversally in 2-3 cm pieces, thoroughly rinsed with PBS, and shaken for 30 minutes in PBS containing 10% FBS, 15 mM Hepes and 5 mM EDTA to remove intraepithelial and epithelial cells. Intestines were then digested with collagenase VIII (300UI/mL; Sigma) in complete RPMI for 45 minutes at 37° C. under agitation, and lamina propria lymphocytes were isolated on a 40%-100% Percoll gradient. Cells were incubated with the Fc blocking antibody (2.4G2) and with a fixable blue dead-cell stain kit (Invitrogen). Surface molecules were stained with antibodies against: CD45.2 (104), CD3 (145-2C11), CD19 (1D3), NK1.1 (PK136), CD49a (Ha31/8), CD11b (M1/70), MHCII (M5/114.15.2), TCRb (H57-597), PD1 (J43, and Hamster IgG2 isotype control), PDL1 (MIHS) from BD Biosciences; NKp46 (29A1.4), CD49b (DX5), F4/80 (BM8), Ly49H (3D10) from eBioscience; CD11c (N418), PD1 (RMP1-30, and Rat IgG2b isotype control), PDL2 (TY25) and Ly6G (1A8) from Biolegend. For intracellular staining, cells were fixed and permeabilized with an intracellular staining kit (eBioscience), and the following antibodies were used: anti-IFN-(XMG1.2) from Biolegend; anti-granzyme B (GB11), anti-Rort (Q31-378), anti-IL17 (TC11-18H10), anti-Ki67 (B56) from BD Biosciences, anti-IL-22 (JOP eBioscience, coupled to Alexa Fluor 647 with an antibody labeling kit from Life Technologies), anti-GR XP rabbit mAb (D8H2) and rabbit mAb IgG XP (DA1E) from Cell Signaling Technology. Stained samples were analyzed in a BD LSRII flow cytometer (BD Biosciences). Apoptosis was detected with the FITC Annexin V Apoptosis Detection Kit I from BD Biosciences, according to the manufacturer's protocol.

How did the “ability of NK cells to degranulate (measured by their CD107a expression)” value (NK cells [1]) turn out when `C[C@]12C[C@H](O)[C@H]3[C@@H](CCC4=CC(=O)CC[C@@]43C)[C@@H]1CC[C@@H]2C(=O)CO` [Corticosterone, (11β)-11,21-Dihydroxypregn-4-ene-3,20-dione] was run?
Its value is “did not affect”.

And the “PD1 expression on NK cells” value (NK cells [2]; corticosterone (250 or 500 nM) with the combination IL-15+IL-18, splenocytes, 4 h)?
Its value is “able to induce PD1 expression on NK cells, in a dose-dependent manner”.

What about the “PD1 expression on NK cells” value (NK cells [2]; corticosterone alone, splenocytes, 4 h at 37° C.) of the same compound?
Its value is “not able to induce PD1 expression”.

What about the “PD1 induction on T cells” value (NK cells [2]; corticosterone in addition to IL-15 and IL-18) of the same compound?
Its value is “not observed”.

And the “PD1 induction on NK cells from GR^Ncr1-iCre mice” value (NK cells [2]; corticosterone in addition to IL-15 and IL-18, GR-deficient NK cells)?
The value was “not observed”.

And the “PD1 expression on NK cells” value (NK cells [2]; corticosterone in the presence of IL-15, splenocytes, 4 h)?
Its value is “not able to induce PD1 expression”.

What about the “PD1 expression on NK cells” value (NK cells [2]; corticosterone with IL-15+IL-18 and addition of IL-12) of the same compound?
The value was “abrogate this effect”.
